Molecules are shown by their SMILES.

As a reminder, the melting point is the temperature of the solid-liquid transition. On to `O=C(O)c1ccccc1OCCN1CCC(c2c[nH]c3ccccc23)CC1`, for which the melting point came to 230 °C. Turning to `CC(C)CC1(C(CCN2C(=O)c3cc(Cl)c(Cl)cc3C2=O)C(=O)NO)CCN(CCc2ccccc2)C1=O` (stereo unspecified), the melting point lay within 207 to 208 °C. The value for `CCc1nn(CCO)c(CC)c1Cc1c(F)cccc1F` was 70 to 71 °C; that for `CC1(C)O[C@@]23CC(=O)CC[C@@]2(C)CC[C@@H]1C3` was 60 to 61 °C. The value for `COc1ccc2c(c1)C(=O)C(Cc1c[nH]c3ccccc13)CO2` (stereo unspecified) was 121 to 123 °C. With `Nc1nc(-c2cc(Cl)ccc2Cl)nc(N2CCC(Cc3ccccc3)CC2)n1` the figure was 159 to 161 °C. With `N#Cc1c(N2CCN(CCCCCC(=O)N3Cc4ccccc4C3)CC2)cccc1C(F)(F)F`, the melting point amounted to 160 °C.

Compound `C/C=C(/COC(=O)CNC(=O)C(F)(F)F)c1ccccc1` returned a melting point of 49 to 50 °C. The value for `Cc1c(C)n(Cc2ccccc2)c2ncnc(Cl)c12` was 115 to 116 °C; that for `CNS(=O)(=O)c1ccccc1Nc1nc(Nc2ccc3c(c2)CCN(CCOC)CC3)ncc1Cl` was 102 to 108 °C; that for `O=C1NC(=O)C(Cc2ccc(OCCc3c[nH]c4ccccc34)cc2)S1` (stereo unspecified) was 42.6 to 44.5 °C. The value for `CC(=O)OC1CC2=CCC3C4CCC(C(C)CBr)C4(C)CCC3C2(C)C(OC(C)=O)C1` (stereo unspecified) was 75 to 76 °C; that for `Cc1cccc(NC(=O)NC2N=C(C3CCCCC3)c3cccc(C)c3N(C)C2=O)c1` (stereo unspecified) was 196 to 198 °C. With `O=C(Cl)c1ccc(Cl)c(S(=O)(=O)NC2CCCCC2)c1` the figure was 119 °C.

Compound `CCCCn1c(=O)c(NC(=O)Nc2c(C(C)C)cccc2C(C)C)c(-c2cccc(OCCC)c2)c2cccnc21` returned a melting point of 154 to 156 °C. Compound `Cc1ccccc1-n1c(CCl)nc2ccccc2c1=O` came in with a melting point of 205 to 206 °C. With `O=C(OCc1ccccc1)C1=CCC2C(C(O)c3ccccc3)C(=O)N12` (stereo unspecified) the figure was 124 °C; with `COC(=O)Cn1c(C)cc(CC2CCCCC2)c([N+](=O)[O-])c1=O`, 128 °C; with `Cc1c(Br)sc2cc(C(=O)Cn3ccnc3)ccc12`, 184 to 186 °C.

In turn, `COCCc1nc2c(N)nc3ccccc3c2n1CCOCCN(C)C(=O)Nc1ccccc1` displayed a melting point of 185 to 186 °C. With `Nc1ccc(C(c2ccc(N)c(N)c2)(C(F)(F)F)C(F)(F)F)cc1N` the figure was 218 to 220 °C; with `CCC(=O)N1C(=O)C2C=CC1C2` (stereo unspecified), 54 to 56 °C; with `COC1=C(OCCCCCc2ccccc2)C2OC2(C=O)C=C1` (stereo unspecified), 65 to 67 °C. For `CC1(C)COc2cc3c(cc21)C1(CO3)CN(Cc2ccccn2)c2ccccc21` (stereo unspecified), the melting point was 145 to 147 °C. The value for `CCC1OC(=O)N(CCc2ccc(NC(=O)c3cccs3)cc2)N=C1c1ccc(OC)c(OC)c1` (stereo unspecified) was 197 °C; that for `CN1CCN(c2ccc([N+](=O)[O-])c(N)c2)CC1` was 109 to 110 °C; that for `CCC(CC)CNC(=O)c1ccc2cccc(Cc3ccc(C(=O)O)cc3OC)c2c1` was 198 to 199 °C. The value for `Cn1cc(C(=O)NCc2ccc(Cl)cc2)c(=O)c2sc(CO)c(COCC[Si](C)(C)C)c21` was 193 to 194 °C; that for `CCCCCCCCCCCCCCP(=O)(OC)OC` was 32 to 33 °C; that for `CCNC1C(C)CN(c2c(F)cc3c(=O)c(C(=O)O)cn(C4CC4)c3c2OC)CC1C` (stereo unspecified) was 250 to 252 °C.

Compound `CNC(=O)NC(=S)N1N=C(c2ccc([N+](=O)[O-])cc2)c2cc3c(cc2CC1C)OCO3` (stereo unspecified) returned a melting point of 164 °C.

As for `CC(C)(N)c1ccc(-c2nc(Nc3cc(F)cc(F)c3)ncc2C#N)cc1`, the melting point was 209 °C. As for `Cn1ncc(C(=O)N2CC3(COC3)C2)c1C(=O)Nc1ccn2nc(N3CCOCC3)nc2c1`, the melting point is greater than 300 °C.

The compound `CC(=NOCc1ccccc1)c1cccc(S(N)(=O)=O)c1` returned a melting point of 136 to 139 °C. With `CC1(C)CC(O)C(C)(C)c2cc(C=O)ccc21` (stereo unspecified) the figure was 76 to 78 °C. The value for `Cc1cc(-c2ccc(C(F)(F)F)cc2)cn2c(-c3nc(-c4ccc(S(N)(=O)=O)s4)no3)cnc12` was 285 °C; that for `CC(C)(C)c1cc(C(=O)Nc2cccc(OCc3cccnc3)c2)ccc1O` was 104 to 107 °C. The compound `O=C(Nc1nnn[nH]1)c1cccc([N+](=O)[O-])c1Cl` yielded a melting point of 279 °C. The value for `CC(=O)NC(C(=O)Nc1ccc(C(=O)OCc2ccccc2)cc1)c1ccc2c(c1)C(C)(C)CCC2(C)C` (stereo unspecified) was 258 to 259 °C. `O=C1NC(=O)C(=Cc2cccc(OCc3ccccc3)c2)S1`: the melting point was 233 to 235 °C.

`CC/C(CO)=C(/c1ccccc1)c1ccc(O)cc1`: the melting point lay within 112 to 116 °C. The value for `O=C(NCc1cccc(Br)c1)c1ccc2cnccc2n1` was 112 to 113 °C.

For the compound `CN(C)C(=O)N(CCl)c1ccc(Cl)cc1`, the melting point was in the range of 37 to 43 °C. In turn, `CCCc1cc(N2CCC(NCC(O)c3ccc4ccccc4n3)CC2)nc2sc(C(N)=O)c(N)c12` (stereo unspecified) gave a melting point of 159 to 161 °C. With `COc1cc(N)c(Cl)cc1C(=O)OCC12CCCN(CC1)C2` (stereo unspecified) the figure was 131 to 133 °C. The value for `CC(C)(C)OC(=O)NCC(=O)N1[C@@H](C(=O)OC(C)(C)C)C[C@H](S(=O)(=O)c2ccccc2)[C@H]1c1ccccc1F` (racemic) was 134 °C; that for `COC(=O)CCc1cnoc1-c1ccc([N+](=O)[O-])cc1` was 118 to 119 °C; that for `CCOC(=O)c1ncn2c1C(C)(C)Nc1ccccc1-2` was 145 to 149 °C. The value for `COc1cccc(Sc2c(C)n(CC(=O)O)c3ccc(NS(C)(=O)=O)cc23)c1` was 292 °C; that for `O=C(CCCCc1cc(O)c(O)c([N+](=O)[O-])c1)NC12CC3CC(CC(C3)C1)C2` was 157 to 160 °C; that for `N#Cc1cc(C(F)(F)F)[nH]c1-c1ccccc1Cl` was 151 to 152 °C. In turn, `COc1ccccc1N1CCN(CCC(C(N)=O)(c2ccccn2)c2ccccc2[N+](=O)[O-])CC1` (stereo unspecified) gave a melting point of 63 to 72 °C. With `COc1cccc(C(=O)Nc2ccc(C(C)=O)cc2)c1` the figure was 152 to 154 °C; with `S=C(NCn1nnc2ccccc21)NCn1nnc2ccccc21`, 205 to 206 °C; with `COc1ccc(F)cc1C(C)(C)c1cc(Cl)ccc1O`, 97 °C. In turn, `COc1cc([N+](=O)[O-])ccc1CBr` yielded a melting point of 94 to 96 °C. The compound `COCOCc1ccccc1C1Cn2cc(C(=O)NCc3ccc(Cl)cc3)c(=O)c3cc(CN4CCOCC4)cc(c32)O1` (stereo unspecified) displayed a melting point of 202 to 204 °C. The value for `N#CN1CCN(c2nn(-c3ccccc3)c3ccccc23)CC1` was 118 to 120 °C. For `CC(C)n1nc(-c2nc(Oc3ccc(F)cc3)c(N)nc2-c2ccccc2)ccc1=O`, the melting point lay in the range of 173 to 175 °C.

`COc1ccc(C(CS(C)(=O)=O)N2C(=O)c3cccc(NC(C)=O)c3C2=O)cc1OCC1CC1` (stereo unspecified) had a melting point of 102 to 104 °C. The value for `Nc1ccnc(CSCCN2C(=O)c3ccccc3C2=O)n1` was 131 to 133 °C.
